Measured values reported in the supplement of paper PMC10307832.

Tests used:
Assay in all cases: relative viability (nuclei count vs DMSO), 5 days (fraction); higher = more cells survive
A-427 = tested on: A-427
How it was run: (§1)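 Lung cancer cell lines were pin-tool dosed in 1536-well plates on the day after seeding, with either a lone drug or a fixed anchor-drug dose plus five library-drug doses (not always all listed) in √10 steps. Nuclei were counted on 4× images after 5 days. Relative viability is the ratio of treated-well to vehicle-well nuclei counts, with each value a median of duplicate plates.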

HCC-15 = tested on: HCC-15
How it was run: as §1

HCC-78 = tested on: HCC-78
How it was run: as §1

HOP-62 = tested on: HOP-62
How it was run: as §1

LC-2-ad = tested on: LC-2-ad
How it was run: as §1

LXF-289 = tested on: LXF-289
How it was run: as §1

NCI-H1734 = tested on: NCI-H1734
How it was run: as §1

NCI-H1755 = tested on: NCI-H1755
How it was run: as §1

NCI-H1915 = tested on: NCI-H1915
How it was run: as §1

NCI-H1975 = tested on: NCI-H1975
How it was run: as §1

NCI-H2126 = tested on: NCI-H2126
How it was run: as §1

NCI-H2228 = tested on: NCI-H2228
How it was run: as §1

NCI-H2342 = tested on: NCI-H2342
How it was run: as §1

NCI-H2347 = tested on: NCI-H2347
How it was run: as §1

NCI-H358 = tested on: NCI-H358
How it was run: as §1

NCI-H647 = tested on: NCI-H647
How it was run: as §1

PC-3 [JPC-3] = tested on: PC-3 [JPC-3]
How it was run: as §1

RERF-LC-KJ = tested on: RERF-LC-KJ
How it was run: as §1

SK-LU-1 = tested on: SK-LU-1
How it was run: as §1

SW 1573 = tested on: SW 1573
How it was run: as §1

Nc1ccn([C@@H]2O[C@H](CO)[C@@H](O)[C@@H]2O)c(=O)n1 [Cytarabine] + COc1cc2c(Oc3ccc(NC(=O)C4(C(=O)Nc5ccc(F)cc5)CC4)cc3F)ccnc2cc1OCCCN1CCOCC1 [Foretinib] (partner 0.25 µM)
relative viability (A-427; first compound 0.005 µM): 0.975
relative viability (A-427; first compound 0.01581 µM): 0.399
relative viability (A-427; first compound 0.05 µM): 0.296
relative viability (A-427; first compound 0.1581 µM): 0.182
relative viability (A-427; first compound 0.5 µM): 0.176
relative viability (HCC-15; first compound 0.005 µM): 0.905
relative viability (HCC-15; first compound 0.01581 µM): 1.05
relative viability (HCC-15; first compound 0.05 µM): 0.996
relative viability (HCC-15; first compound 0.1581 µM): 0.77
relative viability (HCC-15; first compound 0.5 µM): 0.706
relative viability (HCC-78; first compound 0.005 µM): 0.601
relative viability (HCC-78; first compound 0.01581 µM): 0.482
relative viability (HCC-78; first compound 0.05 µM): 0.524
relative viability (HCC-78; first compound 0.1581 µM): 0.378
relative viability (HCC-78; first compound 0.5 µM): 0.372
relative viability (HOP-62; first compound 0.005 µM): 0.904
relative viability (HOP-62; first compound 0.01581 µM): 0.875
relative viability (HOP-62; first compound 0.05 µM): 0.45
relative viability (HOP-62; first compound 0.1581 µM): 0.137
relative viability (HOP-62; first compound 0.5 µM): 0.142
relative viability (LC-2-ad; first compound 0.005 µM): 0.899
relative viability (LC-2-ad; first compound 0.01581 µM): 0.823
relative viability (LC-2-ad; first compound 0.05 µM): 0.839
relative viability (LC-2-ad; first compound 0.1581 µM): 0.62
relative viability (LC-2-ad; first compound 0.5 µM): 0.41
relative viability (LXF-289; first compound 0.005 µM): 0.939
relative viability (LXF-289; first compound 0.01581 µM): 0.961
relative viability (LXF-289; first compound 0.05 µM): 0.749
relative viability (LXF-289; first compound 0.1581 µM): 0.412
relative viability (LXF-289; first compound 0.5 µM): 0.299
relative viability (NCI-H1734; first compound 0.005 µM): 0.553
relative viability (NCI-H1734; first compound 0.01581 µM): 0.373
relative viability (NCI-H1734; first compound 0.05 µM): 0.205
relative viability (NCI-H1734; first compound 0.1581 µM): 0.164
relative viability (NCI-H1734; first compound 0.5 µM): 0.124
relative viability (NCI-H1755; first compound 0.005 µM): 0.962
relative viability (NCI-H1755; first compound 0.01581 µM): 0.886
relative viability (NCI-H1755; first compound 0.05 µM): 0.736
relative viability (NCI-H1755; first compound 0.1581 µM): 0.387
relative viability (NCI-H1755; first compound 0.5 µM): 0.356
relative viability (NCI-H1915; first compound 0.005 µM): 1.11
relative viability (NCI-H1915; first compound 0.01581 µM): 1.02
relative viability (NCI-H1915; first compound 0.05 µM): 1.01
relative viability (NCI-H1915; first compound 0.1581 µM): 0.771
relative viability (NCI-H1915; first compound 0.5 µM): 0.757
relative viability (NCI-H1975; first compound 0.005 µM): 0.982
relative viability (NCI-H1975; first compound 0.01581 µM): 1.03
relative viability (NCI-H1975; first compound 0.05 µM): 0.889
relative viability (NCI-H1975; first compound 0.1581 µM): 0.481
relative viability (NCI-H1975; first compound 0.5 µM): 0.314
relative viability (NCI-H2126; first compound 0.005 µM): 1.01
relative viability (NCI-H2126; first compound 0.01581 µM): 1.03
relative viability (NCI-H2126; first compound 0.05 µM): 1.1
relative viability (NCI-H2126; first compound 0.1581 µM): 0.922
relative viability (NCI-H2126; first compound 0.5 µM): 0.694
relative viability (NCI-H2228; first compound 0.005 µM): 0.479
relative viability (NCI-H2228; first compound 0.01581 µM): 0.563
relative viability (NCI-H2228; first compound 0.05 µM): 0.285
relative viability (NCI-H2228; first compound 0.1581 µM): 0.173
relative viability (NCI-H2228; first compound 0.5 µM): 0.166
relative viability (NCI-H2342; first compound 0.005 µM): 0.983
relative viability (NCI-H2342; first compound 0.01581 µM): 0.887
relative viability (NCI-H2342; first compound 0.05 µM): 0.798
relative viability (NCI-H2342; first compound 0.1581 µM): 0.784
relative viability (NCI-H2342; first compound 0.5 µM): 0.676
relative viability (NCI-H2347; first compound 0.005 µM): 1.32
relative viability (NCI-H2347; first compound 0.01581 µM): 1.43
relative viability (NCI-H2347; first compound 0.05 µM): 0.806
relative viability (NCI-H2347; first compound 0.1581 µM): 0.463
relative viability (NCI-H2347; first compound 0.5 µM): 0.343
relative viability (NCI-H358; first compound 0.005 µM): 0.612
relative viability (NCI-H358; first compound 0.01581 µM): 0.603
relative viability (NCI-H358; first compound 0.05 µM): 0.3
relative viability (NCI-H358; first compound 0.1581 µM): 0.131
relative viability (NCI-H358; first compound 0.5 µM): 0.126
relative viability (NCI-H647; first compound 0.005 µM): 0.625
relative viability (NCI-H647; first compound 0.01581 µM): 0.617
relative viability (NCI-H647; first compound 0.05 µM): 0.282
relative viability (NCI-H647; first compound 0.1581 µM): 0.109
relative viability (NCI-H647; first compound 0.5 µM): 0.11
relative viability (PC-3 [JPC-3]; first compound 0.005 µM): 0.947
relative viability (PC-3 [JPC-3]; first compound 0.01581 µM): 0.832
relative viability (PC-3 [JPC-3]; first compound 0.05 µM): 0.939
relative viability (PC-3 [JPC-3]; first compound 0.1581 µM): 0.629
relative viability (PC-3 [JPC-3]; first compound 0.5 µM): 0.615
relative viability (RERF-LC-KJ; first compound 0.005 µM): 0.855
relative viability (RERF-LC-KJ; first compound 0.01581 µM): 0.787
relative viability (RERF-LC-KJ; first compound 0.05 µM): 0.735
relative viability (RERF-LC-KJ; first compound 0.1581 µM): 0.545
relative viability (RERF-LC-KJ; first compound 0.5 µM): 0.469
relative viability (SK-LU-1; first compound 0.005 µM): 0.735
relative viability (SK-LU-1; first compound 0.01581 µM): 0.759
relative viability (SK-LU-1; first compound 0.05 µM): 0.538
relative viability (SK-LU-1; first compound 0.1581 µM): 0.302
relative viability (SK-LU-1; first compound 0.5 µM): 0.23
relative viability (SW 1573; first compound 0.005 µM): 0.929
relative viability (SW 1573; first compound 0.01581 µM): 0.688
relative viability (SW 1573; first compound 0.05 µM): 0.881
relative viability (SW 1573; first compound 0.1581 µM): 0.464
relative viability (SW 1573; first compound 0.5 µM): 0.202
